Consider one substance from patent EP4813999A1, “NOVEL PEPTIDE DERIVATIVE AND PHARMACEUTICAL COMPOSITION FOR PREVENTING OR TREATING MACULAR DEGENERATION COMPRISING SAME” (Supadelixir Inc., priority 2023, dated 2026).

The subject of data set [1] is HUVECs. Briefly: VEGF-induced chemotactic cell migration (transwell chamber). It is filed as cell-based, human. The note with it: VEGF 10 ng/ml, test substance 0.1, 1, 10, 100 nM, 3 hours. The procedure: The experiment was conducted by dividing the groups into an untreated group, a group treated with VEGF alone, and a group co-treated with VEGF and the test substance (SE101B2L).
In addition, whether the test substance could inhibit VEGF-induced changes in cell migration ability in HUVECs was confirmed. In terms of cell migration ability, changes in chemotactic cell migration were confirmed using a transwell chamber (24-well plate type). After coating the lower surface of a transwell insert membrane having a diameter of 6.5 mm and a pore size of 8.0 µm with 10 µg of gelatin, 5 × 10^4 cultured HUVECs were seeded into the inserts using 0.1 ml of HUVEC basal medium. The test substance was added to each test substance-treated group to final concentrations of 0.1, 1, 10, and 100 nM, and VEGF, together with HUVEC basal medium, was added to the lower wells configured in a 24-well plate format to a final concentration of 10 ng/ml, followed by incubation in an incubator with 5% CO2 at 37°C for 3 hours. Thereafter, the medium was removed from the inserts of the test groups, and the inserts were fixed using a 10% formalin solution. […] Migrated cells in each test group were photographed, and the number of cells was counted. The number of counted cells was converted to values relative to that of the untreated group, thereby calculating the results.

For data set [2], the system named is ARPE19 cells. Kind of data set: Hydrogen peroxide-induced cellular senescence (SA-β-Gal activity staining). It is filed as cell-based, Human. The note with it: 200 µM hydrogen peroxide, test substance 0.01, 0.1, 1 µM, 24 hours. The procedure: (§1) Human retinal pigment epithelial cells (ARPE19) were cultured in a humidified incubator with 5% CO2 at 37°C. DMEM/F12 (Gibco) containing 10% fetal bovine serum and penicillin (100 U/ml)/streptomycin ([…]) was used as medium. The cells were cultured with the medium replaced with fresh medium every other day and were passaged using 0.25% trypsin containing 0.02% ethylenediaminetetraacetic acid (EDTA).
After cellular senescence caused by oxidative stress was promoted in ARPE19 cells using hydrogen peroxide (H2O2), the test substance (SE101B2L) was added at varying concentrations to evaluate inhibitory effects against cellular senescence. Inhibitory activity against cellular senescence was evaluated using senescence-associated β-galactosidase (SA-β-Gal) activity staining, which is well known as a marker for cellular senescence.
ARPE19 cells were seeded into a 96-well plate at 1 × 10^5 cells/well and cultured in an incubator with 5% CO2 at 37°C for 24 hours. […] Cells stained blue were observed under an optical microscope, and the degree of SA-β-gal activity was expressed as a percentage by measuring the number of cells stained blue in the cytoplasm among a total of 50 to 100 cells. The degree of senescence was quantified through measurement.

Data set [3] has as its system ARPE19 cells. Briefly: Hydrogen peroxide-induced apoptosis (phosphatidylserine / CytoCalcein Violet 450 staining). The note with it: 200 µM hydrogen peroxide, test substance 0.01, 0.1, 1 µM, 24 hours. It is filed as cell-based, Human. Here is the method:
as §1
After apoptosis was induced in ARPE19 cells using hydrogen peroxide (H2O2), the test substance (SE101B2L) was added at varying concentrations to evaluate inhibitory effects against apoptosis. Inhibitory effects against apoptosis were measured using phosphatidylserine (PS), which is exposed on the surface of apoptotic cells.
ARPE19 cells were seeded into a 24-well microplate containing coverslips at 1 × 10^6 cells/well and cultured in an incubator with 5% CO2 at 37°C for 24 hours. When approximately 80% confluency was reached, the test substance was added to each treatment group at concentrations of 0, 0.01, 0.1, and 1 µM, together with 200 µM hydrogen peroxide, followed by incubation for 24 hours. […] Emission signals detected from each cell were measured using a digital fluorescence microscope (CELENA S digital imaging system, Logos Biosystems, Korea) to quantify apoptotic cells and live cells.

Data set [4] has as its system HUVECs. Briefly: Cytotoxicity of test substance (CCK-8 cell viability). The format is cell-based, human. The note with it: 24, 48 and 72 hours, up to a concentration of 1,000 nM (1 µM), relative to untreated group at 24 hours. Here is the method: The anti-angiogenic activity of the test substance (SE101B2L) was evaluated using HUVECs. HUVECs were cultured in CEFOgro-HUVEC basal medium (CEFO Co., Ltd.) supplemented with growth supplements containing vascular endothelial cell growth-related factors and serum (HUVEC supplements, CEFO Co., Ltd.), which was used as vascular endothelial cell growth medium (hereinafter denoted as "growth medium").
HUVECs were seeded into a 96-well plate at 5 × 10^3 cells per well together with 0.1 ml of growth medium. After incubation for one day, the cells were treated with the test substance (SE101B2L) such that the final concentration increased tenfold from 0.001 nM (denoted as log -3) to 10,000 nM (denoted as log 4). Thereafter, test groups were incubated for 24, 48, and 72 hours, and Cell Counting Kit-8 (CCK-8) was added at each predetermined time point, followed by incubation for an additional 2 hours, and absorbance was measured at 450 nm. Cell viability was calculated relative to the absorbance value of the untreated group at 24 hours.

In the case of “decylbenzoyl-Cys-Phe-Lys-amide [SE101B2L]”, in the data set with HUVECs [1], the “cell migration ability (number of migrated cells)” value is “reduced by the test substance in a concentration-dependent manner”. For the same substance, the SA-β-gal activity entry in the data set on ARPE19 cells [2] is on record as “decreases SA-β-gal activity in a concentration-dependent manner”. In the data set with ARPE19 cells [3], the “apoptotic cells (green)” value is on record as “apoptotic cells (green) decrease” and the “live cells (blue)” value is reported as “live cells (blue) increase in a concentration-dependent manner”. Further, the “cell viability (cytotoxicity)” value in the data set on HUVECs [4] is on record as “no significant difference in cell viability”.
